Our source for the MIC and IC50 values is patent publication US20250236616A1, “IMMUNOMODULATING AZALIDES” (Zoetis Services LLC, priority 2021, published 2025).

What all share (assay type): cell-based
One assay has as its system P. multocida. Description: MIC, P. multocida strains. The following applies: Pasteurella multocida. From the text:
(§1) Primary screening of the compounds of the invention included the evaluation of antibacterial activity of analogs through determination of microbial inhibition concentration (MIC) as per CLSI guidelines. The screening panel included the relevant BRD pathogens: 1) M. haemolytica (e.g., 12726, 46571 and 49023, all AHDRCC; and 33396 (ATCC)); and 2) P. multocida (e.g., 34135 and 46572 (both AHDRCC) and 43137 (ATCC)). In some instances, H. somni (A700025K) pathogens were also included in the screening panel. The AHDRCC strains originated from the Zoetis BRD/SRD surveillance program and refer to the Animal Health Development and Research Culture Collection. In addition, the screen assessed S. aureus (29213 ATCC) as a representative Gram-positive isolate, E.faecalis (19433 ATCC) as a commensal gram-positive gastrointestinal bacterium and E. coli (100, 3110 and 25922 (ATCC)) for the evaluation of efflux potential. The screening panel BRD pathogens were assessed in determining antibacterial activity of the Formula (1) compounds.
(§2) All relevant BRD pathogens were initially screened at a top concentration of 64 μg/mL of a Formula (1) compound in an eleven-point dilution series. […] If an Example was purified further, the MICs moved […] essentially two dilutions across all strains tested in the screening panel.
(§3) In-Vitro MIC Model Compounds were analyzed for antibacterial activity against a panel of animal health specific gram-positive and gram-negative clinical strains by diluting compounds in DMSO to an appropriate stock concentration to determine the Minimal Inhibitory Concentration (MIC) via a semi-automated broth micro-dilution method (CLSI reference method) with QC strains and anti-microbial agent(s). Specifically, bacteria were grown overnight on TSA w/5% sheep blood agar plates and diluted in saline buffer to a McFarland Standard 0.5, then further diluted in cation-ion adjusted Mueller Hinton Broth to a final concentration of approximately 5×10^5 CFU/mL. 100 μL of inoculated media was added to 96-well plate(s) with 3 μL of serially diluted compound in each row. Depending on strain (see CLSI reference method), bacteria were incubated 18-22 hours at 35-37° C. in ambient air, with 5% CO2 or anaerobically (up to 48 hours).

For the next assay, the system named is S. aureus. Nature of the assay: MIC, S. aureus. Particulars: Staphylococcus aureus; S. aureus 29213.
Excerpt: as §1, §2, §3

In the next assay the test system is TNF-α. Description: Whole bovine blood assay, LPS-induced TNF-α. Particulars: Bos taurus, fresh whole bovine blood, LPS stimulant; top drug concentration 250 μM. The procedure, abridged:
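Fresh heparinized bovine whole blood was preincubated with compound 4 h at 37 °C, then stimulated with LPS (final 1 μg/mL) for 18 h at 37 °C. Plasma TNF-α was quantified by MSD U-Plex chemiluminescent immunoassay, normalized to total protein (BCA), and IC50 taken for LPS-induced TNF-α inhibition.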

Setting [1] is: P. multocida 46572, murine efficacy challenge strain.

Turning to `CC[C@H]1OC(=O)[C@H](C)[C@@H](O)[C@H](C)[C@@H](O[C@@H]2O[C@H](C)C[C@H](N(C)S(=O)(=O)c3ccccc3)[C@H]2Oc2ccc(OC)cc2)[C@](C)(O)C[C@@H](C)CN[C@H](C)[C@@H](O)[C@]1(C)O` [Example A-9, N-((2S,3R,4S,6R)-2-(((2R,3S,4R,5R,8R,10R,11R,12S,13S,14R)-2-ethyl-3,4,10,13-tetrahydroxy-3,5,8,10, 12, 14-hexamethyl-15-oxo-1-oxa-6-azacyclopentadecan-11-yl)oxy)-3-(4-methoxyphenoxy)-6-methyltetrahydro-2H-pyran-4-yl)-N-methylbenzenesulfonamide], the MIC against P. multocida (P. multocida 43137), against P. multocida (setting [1]) and with S. aureus was more than 64 µg/mL in each case. The compound further gave an IC50 in the assay on TNF-α of 4 µM.

Regarding `CCCNC[C@]1(O)[C@H](C)O[C@@H](O[C@H]2[C@H](C)[C@@H](O[C@@H]3O[C@H](C)C[C@H](N(C)S(=O)(=O)c4ccc(C)cc4)[C@H]3O)[C@](C)(O)C[C@@H](C)CN[C@H](C)[C@@H](O)[C@](C)(O)[C@@H](CC)OC(=O)[C@@H]2C)C[C@@]1(C)OC` [Example B-26, N-((2S,3R,4S,6R)-2-(((2R,3S,4R,5R,8R,10R,11R,12S,13S,14R)-2-ethyl-3,4,10-trihydroxy-13-(((2R,4R,5S,6S)-5-hydroxy-4-methoxy-4,6-dimethyl-5-((propylamino)methyl)tetrahydro-2H-pyran-2-yl)oxy)-3,5,8,10,12,14-hexamethyl-15-oxo-1-oxa-6-azacyclopentadecan-11-yl)oxy)-3-hydroxy-6-methyltetrahydro-2H-pyran-4-yl)-N,4-dimethylbenzenesulfonamide], the MIC with P. multocida (P. multocida 43137), in the assay on P. multocida (setting [1]) and with S. aureus was more than 64 µg/mL throughout. The compound also showed an IC50 with TNF-α of 20 µM.

For the compound `CCCNC[C@]1(O)[C@H](C)O[C@@H](O[C@H]2[C@H](C)[C@@H](O[C@@H]3O[C@H](C)C[C@H](N(C)S(=O)(=O)Nc4ccc(C(F)(F)F)cc4)[C@H]3O)[C@](C)(O)C[C@@H](C)CN[C@H](C)[C@@H](O)[C@](C)(O)[C@@H](CC)OC(=O)[C@@H]2C)C[C@@]1(C)OC` [Example B-50, (2R,3S,4R,5R,8R,10R,11R,12S,13S, 14R)-2-ethyl-3,4,10-trihydroxy-13-[(2R,4R,5S,6S)-5-hydroxy-4-methoxy-4,6-dimethyl-5-(propylaminomethyl)oxan-2-yl]oxy-11-[(2S,3R,4S,6R)-3-hydroxy-6-methyl-4-[methyl-[[4-(trifluoromethyl)phenyl]sulfamoyl]amino]oxan-2-yl]oxy-3,5,8, 10, 12, 14-hexamethyl-15-oxo-1-oxa-6-azacyclopentadecane], the MIC in the assay with P. multocida (P. multocida 43137), against P. multocida (setting [1]) and with S. aureus was more than 64 µg/mL in each case.

For the compound `CC[C@H]1OC(=O)[C@H](C)[C@@H](O[C@H]2C[C@@](C)(OC)[C@](O)(CN3CCCCC3)[C@H](C)O2)[C@H](C)[C@@H](O[C@@H]2O[C@H](C)C[C@H](N(C)S(=O)(=O)c3ccc(Cl)cc3)[C@H]2O)[C@](C)(O)C[C@@H](C)CN[C@H](C)[C@@H](O)[C@]1(C)O` [Example C-4, 4-chloro-N-((2S,3R,4S,6R)-2-(((2R,3S,4R,5R,8R,10R,11R,12S,13S,14R)-2-ethyl-3,4,10-trihydroxy-13-(((2R,4R,5S,6S)-5-hydroxy-4-methoxy-4,6-dimethyl-5-(piperidin-1-ylmethyl)tetrahydro-2H-pyran-2-yl)oxy)-3,5,8, 10, 12, 14-hexamethyl-15-oxo-1-oxa-6-azacyclopentadecan-11-yl)oxy)-3-hydroxy-6-methyltetrahydro-2H-pyran-4-yl)-N-methylbenzenesulfonamide], the MIC in the assay with P. multocida (P. multocida 43137), against P. multocida (setting [1]) and with S. aureus was more than 128 µg/mL in each case. For the same compound, the midpoint of inhibition in the assay with TNF-α, the IC50, lay at 5 µM.

With `CC[C@H]1OC(=O)[C@H](C)[C@@H](O[C@H]2C[C@@](C)(OC)[C@](O)(CN3CCCCC3)[C@H](C)O2)[C@H](C)[C@@H](O[C@@H]2O[C@H](C)C[C@H](N(C)S(=O)(=O)Nc3ccc(C(F)(F)F)cc3)[C@H]2O)[C@](C)(O)C[C@@H](C)CN[C@H](C)[C@@H](O)[C@]1(C)O` [Example C-11, (2R,3S,4R,5R,8R,10R,11R,12S, 13S, 14R)-2-ethyl-3,4, 10-trihydroxy-13-[(2R,4R,5S,6S)-5-hydroxy-4-methoxy-4,6-dimethyl-5-(piperidin-1-ylmethyl)oxan-2-yl]oxy-11-[(2S,3R,4S,6R)-3-hydroxy-6-methyl-4-[methyl-[[4-(trifluoromethyl)phenyl]sulfamoyl]amino]oxan-2-yl]oxy-3,5,8, 10, 12, 14-hexamethyl-15-oxo-1-oxa-6-azacyclopentadecane], the MIC with P. multocida (P. multocida 43137), in the assay with P. multocida (setting [1]) and with S. aureus was more than 64 µg/mL in each case. Further, in the assay on TNF-α, it took 17 µM to reach half-maximal inhibition (IC50).

Compound `CCCNC[C@]1(O)[C@H](C)O[C@@H](O[C@H]2[C@H](C)[C@@H](O[C@@H]3O[C@H](C)C[C@H](NC)[C@H]3O)[C@](C)(O)C[C@@H](C)CN[C@H](C)[C@@H](O)[C@](C)(O)[C@@H](CC)OC(=O)[C@@H]2C)C[C@@]1(C)OC` [Example M9, (2R,3S,4R,5R,8R,10R,11R,12S,13S,14R)-2-ethyl-3,4, 10-trihydroxy-13-(((2R,4R,5S,6S)-5-hydroxy-4-methoxy-4,6-dimethyl-5-((propylamino)methyl)-tetrahydro-2H-pyran-2-yl)oxy)-11-(((2S,3R,4S,6R)-3-hydroxy-6-methyl-4-(methylamino)tetrahydro-2H-pyran-2-yl)oxy)-3,5,8,10,12,14-hexamethyl-1-oxa-6-azacyclopentadecan-15-one] returned an IC50 in the assay with TNF-α of 250 µM.

As a reminder, the MIC is the lowest concentration found to suppress growth. Read a high MIC as weaker potency. For orientation: IC50 means the concentration at which inhibition is half-maximal. Low values mean inhibition by little substance, high ones a need for much substance.
